The values below come from ChEMBL document CHEMBL1201862, “PubChem BioAssay data set” (2004).

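Briefly, cells in 96-well plates were exposed to five compound concentrations for 48 h, and endpoints were estimated by linear interpolation. The concentration for 50% growth inhibition is given as GI50.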 The source made the active and inactive calls. No stated cut-off is given here; in the data, active = GI50 up to about 1.1 µM and inactive = higher. Bounds are passed on as bounds.

Among the test systems are SW-620; CCRF-CEM; IGROV-1; NCI/ADR-RES; NCI-H23; COLO 205; CAKI-1; DU-145; HCT-15; HOP-92; SK-MEL-5; MOLT-4; OVCAR-5; M14; OVCAR-8; ACHN; HT-29; HL-60; UACC-257.
Common to all, as to experiment: NCI tumour cell line growth inhibition, 48 h

Consider `O=C(/C=C1\Nc2ccc([N+](=O)[O-])cc2N\C1=C/C(=O)c1ccc(F)cc1)c1ccc(F)cc1`, for which the GI50 was > 100 µM (inactive) in the test on SW-620; 8.81 µM (inactive) in the test on CCRF-CEM; 40 µM (inactive) with IGROV-1; 82 µM (inactive) in the test with NCI/ADR-RES; 19.9 µM (inactive) in the test on NCI-H23; > 100 µM (inactive) in the test on COLO 205. Moreover, the GI50 was 48.1 µM (inactive) with CAKI-1; > 100 µM (inactive) with DU-145; 64.7 µM in the test with HCT-15; 35.1 µM (inactive) in the test with HOP-92; 78.5 µM (inactive) in the test with SK-MEL-5; 17.6 µM (inactive) in the test on MOLT-4. In addition, the GI50 in the test with OVCAR-5 is > 100 µM (inactive); with M14, > 100 µM (inactive); with OVCAR-8 it was > 100 µM (inactive); in the test with ACHN, 13.9 µM (inactive); with HT-29 it was > 100 µM (inactive); with HL-60, 20.7 µM (inactive). The GI50 in the test on UACC-257 was > 100 µM (inactive).
On to `Cc1ccc(Nc2nc(=O)[nH]c(=O)[nH]2)cc1N=[N+]=[N-]`, for which the GI50 in the test with SW-620, in the test with CCRF-CEM, in the test with IGROV-1, in the test on NCI/ADR-RES, with NCI-H23 and in the test on COLO 205 was > 100 µM (inactive) in each case. For the same compound, the GI50 in the test on CAKI-1 was > 100 µM (inactive); in the test on DU-145, > 100 µM (inactive); with HCT-15 it was > 100 µM; in the test with HOP-92, > 100 µM (inactive); with SK-MEL-5, > 100 µM (inactive); in the test on MOLT-4, > 100 µM (inactive). The GI50 with OVCAR-5, in the test with M14, in the test on OVCAR-8, in the test on ACHN, in the test on HT-29 and in the test on HL-60 was > 100 µM (inactive) in each case. The GI50 in the test with UACC-257 is > 100 µM (inactive).
For the compound `c1ccc([C@@H]2N[C@@]3(CO[Si](c4ccccc4)(c4ccccc4)c4ccccc4)CC[C@H]4CN[C@@H]2[C@H]43)cc1`, the GI50 is 3.25 µM (inactive) in the test with SW-620; 16 µM (inactive) in the test on CCRF-CEM; 12.8 µM (inactive) in the test on IGROV-1; 15.4 µM (inactive) in the test with NCI/ADR-RES; 15.5 µM (inactive) with NCI-H23; 1.68 µM (inactive) in the test on COLO 205. The GI50 is 12.4 µM (inactive) in the test with CAKI-1; 10.2 µM (inactive) in the test with DU-145; 3.17 µM in the test on HCT-15; 4.61 µM (inactive) in the test on HOP-92; 6.47 µM (inactive) in the test with SK-MEL-5; 3.75 µM (inactive) in the test with MOLT-4. In addition, the GI50 in the test with OVCAR-5 was 16.1 µM (inactive); in the test with M14 it was 5.65 µM (inactive); in the test with OVCAR-8, 13.1 µM (inactive); in the test with ACHN, 13.7 µM (inactive); in the test with HT-29, 2.55 µM (inactive); with HL-60 it was 4.36 µM (inactive). The GI50 in the test with UACC-257 is 14.3 µM (inactive).
Turning to `Nc1ncc2c(n1)-c1ccccc1OC2N1CCOCC1` (stereo not given), the GI50 with SW-620, with CCRF-CEM, with IGROV-1, with NCI/ADR-RES, in the test with NCI-H23 and with COLO 205 was > 100 µM (inactive) in each case. Moreover, the GI50 was > 100 µM (inactive) with CAKI-1; > 100 µM (inactive) in the test with DU-145; > 100 µM with HCT-15; > 100 µM (inactive) with HOP-92; > 100 µM (inactive) in the test with SK-MEL-5; > 100 µM (inactive) with MOLT-4. Further, the GI50 is > 100 µM (inactive) with OVCAR-5; > 100 µM (inactive) with M14; > 100 µM (inactive) in the test with OVCAR-8; > 100 µM (inactive) with ACHN; > 100 µM (inactive) in the test on HT-29; 44.5 µM (inactive) in the test with HL-60. For the same compound, the GI50 in the test on UACC-257 is > 100 µM (inactive).
On to `c1ccc2cc3c(NC4=NCCO4)cccc3cc2c1`, for which the GI50 with SW-620 is > 100 µM (inactive); in the test on CCRF-CEM, 27.7 µM (inactive); in the test with IGROV-1 it was 60.8 µM (inactive); with NCI/ADR-RES, 75.2 µM (inactive); in the test with NCI-H23 it was 32.9 µM (inactive); in the test on COLO 205, 35.9 µM (inactive). In addition, the GI50 in the test with CAKI-1 is 52.5 µM (inactive); in the test with DU-145 it was 78.7 µM (inactive); in the test with HCT-15, > 100 µM; in the test with HOP-92 it was 17.6 µM (inactive); with SK-MEL-5, 35 µM (inactive); in the test with MOLT-4 it was 31.1 µM (inactive). Also, the GI50 in the test on OVCAR-5 was > 100 µM (inactive); in the test with M14, 34.3 µM (inactive); in the test with OVCAR-8, 48.5 µM (inactive); in the test on ACHN it was 68.1 µM (inactive); with HT-29, 29.9 µM (inactive); in the test on HL-60, 25.9 µM (inactive). In the test with UACC-257, the GI50 is 48.5 µM (inactive).
As for `O=C1N/C(=N/N=C/c2cccs2)N/C1=C\c1ccco1`, the GI50 with SW-620 is 30.4 µM (inactive); in the test with CCRF-CEM, 12 µM (inactive); with IGROV-1, 26.1 µM (inactive); in the test on NCI/ADR-RES, 66.4 µM (inactive); in the test with NCI-H23 it was 45.3 µM (inactive); in the test on COLO 205, 35.5 µM (inactive). Moreover, the GI50 is > 100 µM (inactive) in the test with CAKI-1; > 100 µM (inactive) in the test on DU-145; > 100 µM in the test on HCT-15; > 100 µM (inactive) with HOP-92; 24.3 µM (inactive) in the test on SK-MEL-5; > 100 µM (inactive) in the test with MOLT-4. The GI50 was > 100 µM (inactive) in the test with OVCAR-5; 8.57 µM (inactive) with M14; 37 µM (inactive) with OVCAR-8; > 100 µM (inactive) in the test on ACHN; 39.6 µM (inactive) in the test on HT-29; 31.4 µM (inactive) in the test on HL-60. Besides, in the test on UACC-257, the GI50 is 55.7 µM (inactive).
With `O=C(N/N=C\c1cccc2ccccc12)Nc1ccc([N+](=O)[O-])cc1`, the GI50 is 29.6 µM (inactive) with SW-620; 24.3 µM (inactive) in the test with CCRF-CEM; 18.4 µM (inactive) with IGROV-1; 13.9 µM (inactive) with NCI/ADR-RES; 8.89 µM (inactive) with NCI-H23; 17.1 µM (inactive) in the test with COLO 205. For the same compound, the GI50 in the test with CAKI-1 is 42.1 µM (inactive); with DU-145, 15.3 µM (inactive); with HCT-15, 13.9 µM; with HOP-92, 6.67 µM (inactive); in the test on SK-MEL-5 it was 22.6 µM (inactive); in the test with MOLT-4 it was 20.8 µM (inactive). For the same compound, the GI50 is 19.7 µM (inactive) with OVCAR-5; 28.1 µM (inactive) in the test on M14; 7.64 µM (inactive) in the test on OVCAR-8; 11.6 µM (inactive) in the test on ACHN; 16.8 µM (inactive) in the test with HT-29; > 40.6 µM (inactive) with HL-60. The GI50 in the test on UACC-257 was 25.1 µM (inactive).
On to `CC(=O)O[C@H]1C(=O)[C@@]2(C)[C@H]([C@H](OC(=O)c3ccccc3)[C@]3(O)C[C@H](OC(=O)[C@H](O)[C@@H](NC(=O)c4ccccc4)c4ccc5ccccc5c4)C(C)=C1C3(C)C)[C@]1(OC(C)=O)CO[C@@H]1C[C@@H]2O`, for which the GI50 in the test with SW-620 is 0.0306 µM (active); in the test on CCRF-CEM, 0.0287 µM (active); in the test with IGROV-1 it was 0.0467 µM (active); in the test on NCI/ADR-RES it was 15.7 µM (inactive); in the test with NCI-H23, 0.0912 µM (active); in the test with COLO 205 it was 0.0787 µM (active). Further, the GI50 with CAKI-1 is 1.59 µM (inactive); with DU-145 it was 0.1 µM (active); in the test on HCT-15, 1.54 µM; in the test on HOP-92, 2.25 µM (inactive); in the test with SK-MEL-5, 0.0685 µM (active); with MOLT-4, 0.0264 µM (active). The GI50 in the test with OVCAR-5 was 0.153 µM (active); in the test on M14, 0.0466 µM (active); in the test with OVCAR-8, 0.091 µM (active); in the test on ACHN, 1.51 µM (inactive); in the test with HT-29, 0.0454 µM (active); in the test on HL-60, 0.0107 µM (active). In the test with UACC-257, the GI50 was 0.0826 µM (active).
For `COc1cc2oc3c(c(=O)c2c(O)c1/C=C/C(C)C)CCC(C)(C)Oc1cc(O)ccc1-3`, the GI50 in the test on SW-620 was 21.4 µM (inactive); with CCRF-CEM, 17.3 µM (inactive); with IGROV-1 it was 17.7 µM (inactive); in the test with NCI/ADR-RES it was 15.4 µM (inactive); in the test on NCI-H23, 16 µM (inactive); in the test on COLO 205, 16.4 µM (inactive). Also, the GI50 in the test with CAKI-1 was 16.5 µM (inactive); in the test on DU-145, 33.8 µM (inactive); in the test on HCT-15, 10.2 µM; in the test on HOP-92 it was 17.6 µM (inactive); with SK-MEL-5, 18.7 µM (inactive); in the test on MOLT-4, 13 µM (inactive). Besides, the GI50 with OVCAR-5 is 16.6 µM (inactive); in the test with M14 it was 10.8 µM (inactive); in the test on OVCAR-8, 15.5 µM (inactive); in the test with ACHN, 14.1 µM (inactive); with HT-29, 7.13 µM (inactive); with HL-60, 13.1 µM (inactive). The GI50 in the test with UACC-257 was 14.3 µM (inactive).
`Cc1ccc2cccc3c2c1CC1(C3=O)S(=O)(=O)OCCOS1(=O)=O`: the GI50 in the test on SW-620, in the test with CCRF-CEM, with IGROV-1, in the test on NCI/ADR-RES, in the test with NCI-H23 and in the test on COLO 205 was > 100 µM (inactive) in each case. The GI50 in the test on CAKI-1 was > 100 µM (inactive); in the test with DU-145 it was > 100 µM (inactive); in the test on HCT-15 it was > 100 µM; in the test on HOP-92, > 100 µM (inactive); in the test on SK-MEL-5, > 100 µM (inactive); in the test on MOLT-4 it was > 100 µM (inactive). Besides, the GI50 with OVCAR-5, in the test on M14, in the test on OVCAR-8, in the test with ACHN, with HT-29 and in the test with HL-60 was > 100 µM (inactive) in each case. In the test on UACC-257, the GI50 is > 100 µM (inactive).
